The record followed here is patent US20240246941A1, “SUBSTITUTED 4-(3-AMINOPROP-1-YL)AMINOQUINOLINE ANALOGS AS MODULATORS OF MELANOMA-ASSOCIATED ANTIGEN 11 UBIQUITIN LIGASE” (ST. JUDE CHILDREN'S RESEARCH HOSPITAL, INC., priority 2020, published 2024).

One test deals with MAGE-A11:PCF11 (Homo sapiens (Human), UniProt P43364). The test is described as follows: TR-FRET single point screening at 15 μM. The class given is binding. Details: unit not given here. To be noted: single point TR-FRET screening at 15 μM against MAGE-A11:PCF11. The essentials: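 Competition TR-FRET: compounds at final 15 μM mixed with 200 nM FAM-PCF11_4, 5 nM GST-MAGEA11 and 5 nM Tb-anti-GST in Tris pH 7.5/MgCl2/BSA/DTT buffer, room temperature, 90 min. Emission ratio 520/490 nm (340 nm excitation) expressed as % inhibition relative to positive and negative controls.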
Chain of MAGE-A11:PCF11 (P43364 218-429): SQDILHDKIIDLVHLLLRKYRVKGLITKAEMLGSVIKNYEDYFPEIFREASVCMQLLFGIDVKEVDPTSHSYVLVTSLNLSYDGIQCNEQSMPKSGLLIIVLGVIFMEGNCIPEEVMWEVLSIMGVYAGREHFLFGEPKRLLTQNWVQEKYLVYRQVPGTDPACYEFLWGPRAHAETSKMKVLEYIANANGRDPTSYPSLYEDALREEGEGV
(In TR-FRET formats the signal depends on donor and acceptor labels being close together.)
Turning to `CCCN(CCCNc1c2ccc(Cl)cc2nc2ccc(OC)cc12)Cc1c(F)cccc1OC` [SJ000522733], the TR-FRET signal was −187.1. Still for that read-out and setting: as for `CN(C)CC(=O)Nc1c2c(nc3ccccc13)N(C)CC2` [SJ000332030], the figure is 17.04; as for `Cc1ccc(C)c(CN2CCC(Nc3ccnc4cc(Cl)ccc34)CC2)c1` [SJ000523106], 18.68; as for `CCCN(CCCNc1c2ccc(Cl)cc2nc2ccc(OC)cc12)Cc1cc(C)ccc1C` [SJ000520960], −119.3. On the same count and under the same terms, as for `COc1ccc2nc3cc(Cl)ccc3c(NCCCNCc3ccncc3)c2c1` [SJ000523023], the figure is −127.6; as for `Clc1ccc2c(NCCCCN(Cc3ccccc3)Cc3csc4ccccc34)ccnc2c1` [SJ000520446], 33.98.

Consider `CCN(CC)CC(=O)Nc1c2c(nc3ccccc13)CCCC2` [SJ000019523], for which the TR-FRET signal stood at 2.741. Still for that read-out and setting: as for `COC(=O)CN1CCN(c2cc(C)nc3ccccc23)C(C)C1=O` (stereo not drawn) [SJ000516812], the figure is 3.503; as for `FC(F)(F)Oc1cccc(CN(CCCCNc2ccnc3cc(Cl)ccc23)Cc2ccccc2)c1` [SJ000520457], 33.31. The same measure, in the same setting: next, `CCN1CCN(c2c(S(=O)(=O)c3ccccc3)cnc3ccc(C)cc23)CC1` [SJ000083956]: −3.448; `COc1ccc2ncc(S(=O)(=O)c3ccc(C)cc3)c(N3CCN(Cc4ccccc4)CC3)c2c1` [SJ000117085]: −82.22; `FC(F)(F)c1cc(CN(CCCCNc2ccnc3cc(Cl)ccc23)Cc2ccccc2)ccc1Cl` [SJ000520466]: 25.28.

In turn, `O=[N+]([O-])c1cccc(CN(CCCCNc2ccnc3cc(Cl)ccc23)Cc2ccccc2)c1` [SJ000361201] had a TR-FRET signal of 24.37. The same measure, in the same setting: next, `Fc1cccc(CN2CCC(Nc3ccnc4cc(Cl)ccc34)CC2)c1` [SJ000523092]: 6.622. Same read-out and setting: as for `CCc1ccc(CN(CCCCNc2ccnc3cc(Cl)ccc23)Cc2ccccc2)cc1` [SJ000520443], the figure is 29.91; as for `O=[N+]([O-])c1ccccc1CN(CCCCNc1ccnc2cc(Cl)ccc12)Cc1ccccc1` [SJ000361200], 17.21. Same read-out and setting: next, `Clc1ccc2c(NCCCCN(Cc3ccccc3)Cc3cccc4ccccc34)ccnc2c1` [SJ000361204]: 26.49; `Fc1ccc(CN2CCC(Nc3ccnc4cc(Cl)ccc34)CC2)cc1` [SJ000523093]: 10.66. For the molecule `COc1ccc2nc3cc(Cl)ccc3c(NCCCNCc3cc4ccccc4s3)c2c1` [SJ000521000], the TR-FRET signal is reported as −220.4. Same read-out and setting: next, `COc1ccc2nc3cc(Cl)ccc3c(NCCCNCc3ccco3)c2c1` [SJ000523032]: −165.3.

As to `Oc1ccc(Br)cc1CN1CCC(Nc2ccnc3cc(Cl)ccc23)CC1` [SJ000311181], the TR-FRET signal was −1.209.

On to `Cc1ccsc1CN(CCCCNc1ccnc2cc(Cl)ccc12)Cc1ccccc1` [SJ000361191], for which the TR-FRET signal came out at 23.44. On the same count and under the same terms, as for `CCCCCN(CCCCNc1ccnc2cc(Cl)ccc12)Cc1ccccc1` [SJ000361196], the figure is 19.1.

As to `COc1ccc2nc3cc(Cl)ccc3c(NCCCNCc3cccn3C)c2c1` [SJ000520985], the TR-FRET signal is listed as −402.5. The same measure, in the same setting: as for `Cc1ccc(S(=O)(=O)c2cnc3ccc(F)cc3c2N2CCN(C)CC2)cc1C` [SJ000247344], the figure is −7.627.

Molecule `CCCN(CCCNc1c2ccc(Cl)cc2nc2ccc(OC)cc12)CCC(C)c1ccccc1` (stereo not drawn) [SJ000522731] displayed a TR-FRET signal of −121.

`COc1ccc2nc3cc(Cl)ccc3c(NCCCNCCC(C)(C)C)c2c1` [SJ000520994] had a TR-FRET signal of −456.3.

As to `C#CCOCC(O)CN1CCN(c2cc(C)nc3ccccc23)CC1` (stereo not drawn) [SJ000227655], the TR-FRET signal came to 6.55. In the case of `CCCN(CCCNc1c2ccc(Cl)cc2nc2ccc(OC)cc12)Cc1ccc(C(=O)OC)cc1` [SJ000523018], the TR-FRET signal is −118.6.

As for `CCN1CCN(c2c(S(=O)(=O)c3ccc(C)cc3)cnc3cc(OC)c(OC)cc23)CC1` [SJ000083965], the TR-FRET signal was determined as 7.146. On the same count and under the same terms, as for `CCc1ccc(S(=O)(=O)c2cnc3ccccc3c2N2CCN(Cc3ccccc3)CC2)cc1` [SJ000117086], the figure is −55.26; as for `CCCN(CCCNc1c2ccc(Cl)cc2nc2ccc(OC)cc12)CC(C)CC` (stereo not drawn) [SJ000520959], −264.8; as for `CCOC(=O)c1cnc2ccc(Cl)cc2c1N1CCN(C)CC1` [SJ000187322], −0.9277.

The test is the same for the next values; noted with them: single point TR-FRET screening of quinoline compounds against MAGE-A11:PCF11; 15 μM.
For `COc1ccccc1CN(CCCNc1ccnc2cc(Cl)ccc12)Cc1ccccc1` [SJ000522722], the TR-FRET signal was 4.43. The same measure, in the same setting: as for `Cn1cc(CN(CCCNc2ccnc3cc(Cl)ccc23)Cc2ccccc2)c2ccccc21` [SJ000520439], the figure is −9.311. Same read-out and setting: next, `CCCN(CCCNc1ccnc2cc(Cl)ccc12)Cc1ccc([N+](=O)[O-])o1` [SJ000523047]: 9.575; `CCCN(CCCNc1ccnc2cc(C(F)(F)F)ccc12)Cc1ccccc1O` [SJ000361257]: 26.5; `CCCN(CCCNc1ccnc2cc(Cl)ccc12)Cc1cc2ccccc2s1` [SJ000522993]: 5.864. Still for that read-out and setting: next, `COC(=O)CCCCCNCCCNc1ccnc2cc(C(F)(F)F)ccc12` [SJ000521044]: 19.59. In the case of `Clc1ccc2c(NCCCN(Cc3ccccc3)Cc3nccs3)ccnc2c1` [SJ000312676], the TR-FRET signal was −4.148. Same read-out and setting: next, `CCCN(CCCNc1ccnc2cc(C(F)(F)F)ccc12)Cc1ccccc1F` [SJ000361274]: 19.22; `CCCN(CCCNc1ccnc2cc(C(F)(F)F)ccc12)Cc1ccccc1C(=O)O` [SJ000523073]: 16.86. On the same count and under the same terms, next, `FC(F)(F)c1ccc2c(NCCCNCc3cc4ccccc4s3)ccnc2c1` [SJ000521060]: 35.63; `CCCN(CCCNc1ccnc2cc(Cl)ccc12)CCOCc1ccccc1` [SJ000357577]: −13.18; `CCCN(CCCNc1c2ccc(Cl)cc2nc2ccc(OC)cc12)Cc1cc(OC)ccc1F` [SJ000522965]: −81.24. On the same count and under the same terms, as for `COc1cccc(CN(CCCNc2ccnc3cc(Cl)ccc23)Cc2ccccc2)c1O` [SJ000357465], the figure is 13.17; as for `FC(F)(F)c1ccc2c(NCCCNCc3csc4ccccc34)ccnc2c1` [SJ000521061], 41.86; as for `COc1ccc2nc3cc(Cl)ccc3c(NCCCNCc3ccc[nH]3)c2c1` [SJ000361084], 0.9854. `FC(F)(F)c1ccccc1CN(CCCNc1ccnc2cc(Cl)ccc12)Cc1ccccc1` [SJ000361168]: the TR-FRET signal came out at 2.509.

In turn, `Clc1ccc2c(NCCCN(CCCc3ccccc3)Cc3ccccc3)ccnc2c1` [SJ000361185] returned a TR-FRET signal of 6.074. On the same count and under the same terms, next, `CCCN(CCCNc1ccnc2cc(C(F)(F)F)ccc12)Cc1cc(Br)cs1` [SJ000520478]: −9.243. Same read-out and setting: as for `COc1ccc2nc3cc(Cl)ccc3c(NCCCNCc3cccc(OC(F)(F)F)c3)c2c1` [SJ000520988], the figure is −73.54. For the molecule `COc1ccc(-c2ccc3c(NCCCNCc4ccco4)ccnc3c2)cc1` [SJ000311294], the TR-FRET signal stood at 7.824. On the same count and under the same terms, as for `c1ccc(-c2ccc3c(NCCCNCc4ccco4)ccnc3c2)cc1` [SJ000311282], the figure is 28.69. Still for that read-out and setting: as for `CCCN(CCCNc1ccnc2cc(Cl)ccc12)CC(CC)CC` [SJ000522752], the figure is 14.17.

For the molecule `CN(C)c1cccc(Oc2ccc3c(NCCCNCc4ccco4)ccnc3c2)c1` [SJ000311230], the TR-FRET signal amounted to 63.42.

`CC(C)CCc1ccc2c(NCCCNCc3ccco3)ccnc2c1` [SJ000311246] showed a TR-FRET signal of 13.01. Still for that read-out and setting: as for `CCCN(CCCNc1ccnc2cc(C(F)(F)F)ccc12)Cc1ccsc1` [SJ000361254], the figure is 28.88; as for `CSCCCNCCCNc1ccnc2cc(Cl)ccc12` [SJ000523051], 14.97; as for `Cc1ccsc1CN(CCCNc1ccnc2cc(Cl)ccc12)Cc1ccccc1` [SJ000357440], 10.9.

`CCCN(CCCNc1ccnc2cc(C(F)(F)F)ccc12)Cc1ccccc1[N+](=O)[O-]` [SJ000523071]: the TR-FRET signal is −7.745.

`CCCN(CCCNc1c2ccc(Cl)cc2nc2ccc(OC)cc12)Cc1ccccc1C(F)(F)F` [SJ000520928] displayed a TR-FRET signal of 14.17. The same measure, in the same setting: as for `CCC(CC)CN(CCCNc1ccnc2cc(Cl)ccc12)Cc1ccccc1` [SJ000361172], the figure is 22.91; as for `c1ccc(Oc2ccc3c(NCCCNCc4ccco4)ccnc3c2)cc1` [SJ000311206], 14.59; as for `CC(C)(C)c1ccc(Oc2ccc3c(NCCCNCc4ccco4)ccnc3c2)cc1` [SJ000311234], 57.54.

Molecule `CCCN(CCCNc1c2ccc(Cl)cc2nc2ccc(OC)cc12)Cc1ccc(Br)s1` [SJ000520924] returned a TR-FRET signal of −56.45. On the same count and under the same terms, next, `CCCN(CCCNc1ccnc2cc(C(F)(F)F)ccc12)Cc1nccn1C` [SJ000575170]: 7.124.

Take `CCOC(=O)c1cnc2c(Cl)cccc2c1NCCCN1CCOCC1` [SJ000279431]: the TR-FRET signal was 4.102.

`O=[N+]([O-])c1ccc(CNCCCNc2ccnc3cc(Cl)ccc23)s1` [SJ000520912]: the TR-FRET signal is reported as 6.284. On the same count and under the same terms, as for `Fc1ccc(Oc2ccc3c(NCCCNCc4ccco4)ccnc3c2)cc1` [SJ000311222], the figure is 9.365; as for `CCCN(CCCNc1ccnc2cc(Cl)ccc12)Cc1ccsc1` [SJ000522744], 7.824; as for `CCCN(CCCNc1ccnc2cc(C(F)(F)F)ccc12)Cc1nccs1` [SJ000575189], 8.665.
